Entries after “also recorded” stand apart in the source; their conditions may differ.
Key:
[1] = Partition between n-octanol and saline; format: physicochemical; settings: for rel. Pcoeff (a): Table 2, relative to L-val-n1 = 1.0
Description: e. Partition coefficients were obtained by overnight equilibration of the free reversed siderophores between equal volumes of n-octanol and saline. The concentrations of the ligands in each phase were determined by adding excess iron(III) and measuring the ferric complexes at 430 nm.
The values for Pcoeff of free RSF ileun2 (the same as SF1ileu) and of leun2 and their respective iron(III) complexes were similar (not shown).

[2] = tested on: trophozoite cultures of P. falciparum; assay: Neutralization of drug induced inhibition by addition of iron(III); format: cell-based, Plasmodium falciparum; settings: stoichiometric addition of iron(III) salt / applied as iron(III)-complexes
Description: i. Neutralization of drug induced inhibition by addition of iron (III). Preformed ferric iron-carrier complexes were prepared by addition of increasing amounts of FeCl3 (in methanol) to a DMSO solution containing the indicated concentration of chelator. The mixtures were incubated for 1 hour at room temperature and added to microculture wells at the trophozoite stage at final concentrations of 30 μg/ml (for desferrioxamine) and 5 μg/ml (for reversed siderophores).
In order to assess this point, it was examined whether the reversed siderophores cause growth inhibition by virtue of iron deprivation (extraction at the level of the infected cell), as compared to formation of toxic iron complexes, the effect of chelator on trophozoite cultures was examined in the presence of increasing amounts of ferric salt. […] The concentration of drug used was the IC50 value depicted in Table 1. […] The complexes were evidently non-toxic to parasites, thus ruling out chelated iron-mediated lipid peroxidation as the modus of operandii of the drugs, a mechanism of antimalarial activity that has been proposed for other iron chelators. […]

[3] = tested on: infected red cells; assay: Uptake of 59Fe-carrier complexes into infected red cells; format: cell-based, human erythrocytes infected with P. falciparum
Description: k. Uptake of radioactive carrier-Fe complexes. DFO and the different SF derivatives were pre-complexed with iron by addition of concentrated stock solutions of 20 mg/ml carriers to ^59 FeCl3 (Amersham, England) in 0.5 ml of 150 mM NaCl, 10 mM Hepes at 3-5 molar excess of carrier for 1 hour at room temperature. To begin the flux, normal or parasitized red cells that had been washed 3 times in saline buffer and resuspended in the same buffer supplemented with 5% bovine serum albumin (BSA), 2.5 mM citrate, 2 mg/ml glucose were added to radioactive ^59 Fe-complexes at a final suspension of 20% hematocrit. After incubation at 37° C., 75 μl suspension was removed in duplicate aliquots for each time point, placed in plastic 15 ml test tube (Starstedt) and centrifuged 1 minute at 2,500 g. The supernatant was removed and the pellet immediately placed on ice. After all sampling was completed the pellets were washed twice in 15 ml of ice cold buffer containing 50 mM EDTA and lysed in distilled water. Radioactivity (Gamma emission, 700-1300 Kev) was counted and the cell number for each sample determined from hemoglobin absorption of the lysate at 410 nm.
Penetration of RSF's into normal and infected red cells was estimated by monitoring uptake of the RSF's-^59 Fe(III) complexes into infected and uninfected cells and compared to DFO. In order to confirm actual uptake of Fe-RSF ileun2 rather than adsorption to the outer membrane, cells were thoroughly washed and lysates were subjected to 80,000g×20 min centrifugation.
The carriers were pre-complexed to ^59 FeCl3 at 4:1 ration in DMSO with 5 μM external FeCl3 (from methanolic stock solutions). The radioactive complexes were then added to 20% hematocrit cell suspensions and flux was measured. […] Cell number was determined from hemoglobin absorption of lysate at 410 nm.

[4] = Extraction of iron from aqueous FeCl3/citrate into chloroform; format: physicochemical; settings: 0.3 mM in chloroform vs 0.3 mM FeCl3, 0.3 mM citric acid, 40 mM TRIS, pH 6.9, overnight
Description: d. Extractions were performed by overnight equilibration of 0.3 mM chloroform solutions of reversed siderophore with aqueous solutions of 0.3 mM FeCl3, 0.3 mM citric acid, 40 mM TRIS, pH 6.9. The amount of iron taken up into the organic phase was determined by the absorption of the iron+complex at 430 nm. No iron uptake into chloroform solutions devoid of RSF was observed by ion chromatography.

[5] = tested on: plasma; assay: Pre-incubation of plasma with chelator, effect on parasite growth; format: cell-based, human; settings: 40 fold IC50, then dialysis
Description: h. The effect of pre-incubation of red cells or plasma with drug on parasite growth. Red cell suspensions (5% hematocrit) in RPMI 1640 medium pH 7.4 (no plasma) were treated for 24-48 hrs with either 100 μg/ml of chelator or DMSO alone (<1% final concentration) in culture conditions. Chelator was removed by washing the cells 4 times with RPMI followed by 1 hour incubation at 37° C. Parasite growth was assayed after addition of gelatin enriched schizonts (>90%) as described above. […] The plasma was subsequently dialyzed for 24 hours against 800 ml 0.1% bovine serum albumin (BSA), and 10 mM glucose in phosphate buffered saline (PBS) pH 7.4, followed by an additional 24 hour dialysis against 400 ml of the same buffer and supplemented to the medium for parasite growth assays.
Plasma and uninfected red cells were separately treated with relatively high concentrations of chelators (100 μg/ml) in order to evaluate whether the site of action of the lipophilic chelators was associated with components of the plasma and/or the uninfected red cell.

[6] = tested on: human Hep2 hepatoma cells; assay: Iron extraction from hepatoma cells (NBD-DFO fluorescence); format: cell-based; settings: cells pre-exposed to chelator (80 μg/ml, 18 hour)
[7] = tested on: transferrin; assay: Effect on iron in transferrin; settings: after the same time of exposure
[8] = tested on: mammalian cells in culture; assay: Growth/toxicity in mammalian cells in culture, general statement; format: cell-based
Description: The possibility that the reversed siderophores might affect mammalian cells in culture was assessed in conditions identical to those used for parasites in cultures. […] Nucleic acid synthesis was measured in cultures of mouse NIH 3T3 fibroblasts and human HT29 colonic carcinoma cells in the presence of either SF1-ileu (open circles), desferrioxamine (DFO) (solid triangle) in DMSO or DMSO alone (Control) (<1% final) (open triangles) at same concentrations. Cultures at confluence were exposed to chelators for 24 hours; the first 3 hours without radiolabel and 21 hours with 6 μCi/ml of [^3 H]-hypoxanthine. Extracellular hypoxanthine was removed by several washes with PBS and the cells were treated with 5% TCA for 15 minutes at 5° C. and solubilized with hot 2.5% SDS. Samples were taken for counting of radioactivity and measurement of protein (BCA, Pierce). Data are given as dpm/μg protein and SD (duplicate samples).

[9] = amino acid side chain, Tanford/Segret's scale as given by Eisenberg 1984; cited from earlier work
[10] = iron(III) complex, infected red cells, 5 μM external Fe

SMILES | rel. Pcoeff (a) [1] | Effect of iron(III) on antimalarial activity [2] | Uptake into infected vs normal red cells ([3]; DFO-Fe, 8 hour time course) | Uptake level lower than that attained by RSF's after 10 minutes ([3]; intracellular Fe-DFO after 8 hours vs RSF's after 10 minutes) [fold] | Extraction efficiency [4] | logP ([1]; Table 1, free ligand, read-out: Partition coefficient (converted)) | Pcoeff of free ligand vs iron(III) complex ([1]; not shown) | Ability of plasma to support parasite growth after pre-treatment [5] | Chelatable cytosolic iron [6] | Time to maximum uptake ([3]; iron(III) complex, infected red cells) [min] | Maximum uptake level [3, 10] [nmoles/10^10 cells] | Uptake t1/2 [3, 10] [min] | Effect on iron in transferrin [7] | Growth of / toxicity to mammalian cells in culture [8] | Hydrophobicity [9]
CC(=O)N(O)CCCCCNC(=O)CCC(=O)N(O)CCCCCNC(=O)CCC(=O)N(O)CCCCCN [DFO, desferrioxamine B, reference compound] | < 0.056 | fully averted their antimalarial activity | approximately twice that of normal red cells | 20 |  |  |  |  |  |  |  |  |  |  | 
CC[C@H](C)[C@H](NC(=O)CCOCC(CC)(COCCC(=O)N[C@H](C(=O)N(C)O)[C@@H](C)CC)COCCC(=O)N[C@H](C(=O)N(C)O)[C@@H](C)CC)C(=O)N(C)O [SF1-ileu] | 8.2 |  |  |  | 52 | 1.15 | similar | no significant effect | demonstrably reduced | 10 to 15 | 4 | 2 to 3 | not substantially affecting | does not affect the growth of various types of mammalian cells in culture; also recorded: not toxic to mammalian cells in culture | 5.0

— US5430058A, “Pharmaceutical compositions comprising hydroxamate derivatives for iron removal” (Yeda Research and Development Co. Ltd., priority 1993, dated 1995)
